Legend:
M2 WT = conditions: only binding curve recorded; upper limit of the true Kd; cited from earlier work
Udorn M2 WT = Udorn M2 WT (Influenza A virus, UniProt P0DOF5); assay: two-electrode voltage clamp electrophysiological; type: binding, influenza A virus A/Udorn/72; conditions: amantadine vs rimantadine
Udorn M2 WT, sequence (P0DOF5 whole entry, looked up): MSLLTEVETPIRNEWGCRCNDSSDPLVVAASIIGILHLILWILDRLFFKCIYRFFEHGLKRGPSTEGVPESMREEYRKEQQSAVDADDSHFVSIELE

## CC(N)C12CC3CC(CC(C3)C1)C2 (racemic) [rimantadine (racemic), rimantadine]
M2 WT
  Kd: 7 µM

## C[C@H](N)C12CC3CC(CC(C3)C1)C2 [(S)-rimantadine]
M2 WT
  Kd: 3.9 µM

## NC12CC3CC(CC(C3)C1)C2 [amantadine]
Udorn M2 WT
  binding affinity to Udorn M2 WT weaker than rimantadine: about 10 fold

From publication PMC8810914 (Biochemistry, 2021)
